Measurements from patent US20130005762A1, “COMBINATION OF DROLOXIFENE AND CLOPIDOGREL” (TCP Innovations Limited, priority 2009, published 2013).
“Also recorded” adds a separate entry of the source. Where a name gives a salt, the structure may show the parent alone.

What was measured:
[1] = system: rat aortic smooth muscle cells; assay: TGF-beta Production Stimulator functional assay: suppression of smooth muscle cell proliferation reversible by neutralising anti-TGF-beta1 antibody; assay type: cell-based, Wistar rat; conditions: compared side-by-side with Tamoxifen
Excerpt: In order compare Droloxifene with other triphenylethylenes, we have exploited a functional assay for TGF-beta1 activity. Alternative approaches are less suitable for various reasons: it is not possible to directly measure TGF-beta protein production by cultured cells in response to triphenylethylenes because the TGF-beta that is produced remains associated with the cells or the extracellular matrix and is therefore not available for assay (for example, by ELISA) in the conditioned medium from the cultured cells. […] The specificity of such an assay is achieved by comparing the rate of proliferation of the smooth muscle cells in the presence or absence of a validated, highly specific neutralising antibody against TGF-beta (or TGF-beta1, as required).
The cells were prepared by enzyme dispersion of isolated rat aortae exactly as described previously (Grainger et al (1993) Biochem. J. 294(1):109-12 and the references therein). The cells were cultured (37° C.; 5% CO2) in DMEM+10% foetal calf serum (FCS), and subcultured every 4 days at 1:2 dilution, using 0.02% trypsin/EDTA (Gibco). Experiments were performed between the sixth and twentieth subculture.
For the experiments, the cells were subcultured into 12-well cluster plates, and allowed to grow for 24 hrs. […] The cells were then incubated for 72 hrs. All treatment conditions were established in triplicate. One triplicate of cells was counted (see below) at Oh. All other wells were counted at 72 hrs.
The number of cells in each well was determined as follows: the well was washed three times with serum-free DMEM, aspirated and then incubated with 100 μl of trypsin/EDTA solution (Gibco) for 2 minutes at 37° C. Complete release of the cell monolayer was confirmed microscopically. The cell density in portion of this suspension was determined by counting using an Improved Neubauer hameocytometer, ensuring the suspension was uniform by gentle pipetting, prior to sampling. The cell density was converted to the absolute number of cells present in the well by multiplying the number of cells per μl by the total volume of suspension (100 μl). For each condition, the mean number of cells at the end of the experiment was calculated by meaning the number of cells in each well of triplicate.
The extent of proliferation of the cell culture under each condition was determined by subtracting the mean number of cells at time Oh from the mean number of cells under that condition at time 72 h. The amount of TGF-beta1 activity under each condition was determined by subtracting the inhibition of growth achieved in the presence of neutralising anti-TGF-beta1 antibody (AB-101-NA; R&D Systems) from the inhibition of growth achieved in the absence of antibody.

[2] = Effect of co-administered triphenylethylenes on clopidogrel metabolism in vivo (CLP*-acetamide by LC-MS); set-up: species or system Sprague-Dawley rats; conditions: oral gavage; for effect on clopidogrel metabolism (in words): 0.1 to 10 mg/kg with 10 mg/kg clopidogrel
Procedure: Adult male Sprague-Dawley rats are dosed with various triphenylethylenes at different doses from 0.1 mg/kg to 10 mg/kg (spanning the likely doses such compounds would be used in man), or with vehicle only, and simultaneously dosed with 10 mg/kg clopidogrel, both by oral gavage. Blood samples are drawn through an in-dwelling jugular catheter at 0.5, 1, 2, 4, 8 and 24 hrs post-dose, and serum is prepared by conventional methods well known in the art.
The level of CLP*, the active metabolite of clopidogrel is then determined in each blood sample by LC-MS by collecting the blood samples in tubes containing the thiol alkylating agent iodeoacetamide. Iodoacetamide reacts with CLP* to generate a stable product which can be detected by LC-MS using standard methodology well known in the art. An authentic sample of the acetamide adduct of CLP* is used to quantify the level of CLP*-acetamide in the sample. […] The concentration of CLP*-acetamide adduct can therefore be assumed to be proportional to the concentration of CLP*. The pharmacokinetics of CLP*-acetamide are then compared under the different conditions, using standard pharmacokinetics models implemented with WinNonLin.

[3] = Meta-analysis of cardiovascular outcomes of women treated with Tamoxifen (Braithwaite et al.); assay type: in vivo; conditions: translated from the relative risk
Excerpt: This translates to a 33% reduction in risk, which, if replicated among higher risk groups such as men, would result in at least 10,000 fewer deaths due to myocardial infarction in the UK alone each year, and five times that number in the US.

[4] = analog 0.1 mg/kg with 10 mg/kg clopidogrel
[5] = analog 1 mg/kg with 10 mg/kg clopidogrel
[6] = analog 10 mg/kg with 10 mg/kg clopidogrel

| SMILES | TGF-beta Production Stimulator activity (in words) [1] | % inhibition of CLP*-acetamide Cmax compared to vehicle control [2, 4] [%] | % inhibition of CLP*-acetamide Cmax compared to vehicle control [2, 5] [%] | % inhibition of CLP*-acetamide Cmax compared to vehicle control [2, 6] [%] | effect on clopidogrel metabolism (in words) [2] | effect on clopidogrel metabolism (in words) ([2]; listed as droloxifene) | TGF-beta Production Stimulator activity (in words) ([1]; listed as raloxifene) | reduction in risk of death from myocardial infarction [3] [%] |
| --- | --- | --- | --- | --- | --- | --- | --- | --- |
| CC/C(=C(\c1ccccc1)c1ccc(OCCN(C)C)cc1)c1ccccc1 [tamoxifen citrate] | no difference | – | – | – | – | – | – | – |
| CC/C(=C(\c1ccc(I)cc1)c1ccc(OCCN2CCCC2)cc1)c1ccccc1 [Idoxifene] | – | 2 | 6 | 48 | – | – | – | – |
| CC/C(=C(/c1ccc(OCCN(C)C)cc1)c1cccc(O)c1)c1ccccc1 [Droloxifene, (E)-1-(4′-(2-dimethylaminoethoxy)phenyl)-1-(3-hydroxyphenyl)-2-phenylbut-1-ene] | comparable activity | 0 | −19 | −7 | no effect on clopidogrel metabolism | no effect on the pharmacokinetics of clopidogrel | – | – |
| O=C(c1ccc(OCCN2CCCCC2)cc1)c1c(-c2ccc(O)cc2)sc2cc(O)ccc12 [Raloxifene] | does not have measurable activity | −18 | 11 | – | – | – | substantially less active; also recorded: does not stimulate the production of TGF-beta1 | – |
| CC/C(=C(\c1ccccc1)c1ccc(OCCN(C)C)cc1)c1ccccc1 [Tamoxifen] | – | – | – | – | – | – | – | 33 |
